According to US6358885B1, “Substituted phenylheterocyclic herbicides” (Mississippi State University, priority 1992, dated 2002):

Key:
wild oat [1] = experiment: Test B preemergence/postemergence greenhouse plant response rating 0 to 10; assay type: in vivo, Avena fatua; conditions: 0 to 10 scale
Summary of the method: (§1)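 Both application timings were run together: seeds got compound preemergence, and established seedlings (two to eighteen cm) got it postemergence. Non-phytotoxic solvent carried the chemical. Ratings are visual, versus controls, at twelve to sixteen days.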

bedstraw = experiment: as above; assay type: in vivo, Galium aparine; conditions: 0 to 10 scale
Summary of the method: as §1

downy brome = experiment: Test C preemergence/postemergence greenhouse plant response rating 0 to 100; assay type: in vivo, Bromus tectorum; conditions: POSTEMERGENCE; for Plant response rating Downy Brome: 0 to 100 scale
Summary of the method: (§2)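 Compounds in non-phytotoxic solvent applied preemergence to sandy loam one day after planting, postemergence at the 1–4 leaf stage, or to ~2.5 cm floodwater over silt loam.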

ryegrass = experiment: as above; assay type: in vivo, Lolium multiflorum; conditions: POSTEMERGENCE; for Plant response rating Ryegrass: 0 to 100 scale
Summary of the method: as §2

wheat [2] = experiment: as above; assay type: in vivo, Triticum aestivum; conditions: POSTEMERGENCE; for Plant response rating, Wheat: 0 to 100 scale
Summary of the method: as §2

wheat [3] = experiment: Test B preemergence/postemergence greenhouse plant response rating 0 to 10; assay type: in vivo, Triticum aestivum; conditions: 0 to 10 scale
Summary of the method: as §1

sorghum [4] = experiment: Test C preemergence/postemergence greenhouse plant response rating 0 to 100; assay type: in vivo, Sorghum bicolor; conditions: POSTEMERGENCE; for Plant response rating, Sorghum: 0 to 100 scale
Summary of the method: as §2

rape = experiment: as above; assay type: in vivo, Brassica napus; conditions: POSTEMERGENCE; for Plant response rating, Rape: 0 to 100 scale
Summary of the method: as §2

barley = experiment: Test B preemergence/postemergence greenhouse plant response rating 0 to 10; assay type: in vivo, Hordeum vulgare; conditions: 0 to 10 scale
Summary of the method: as §1

wild buckwheat = experiment: Test C preemergence/postemergence greenhouse plant response rating 0 to 100; assay type: in vivo, Polygonum convolvulus; conditions: POSTEMERGENCE; for Plant response rating, Wild buckwheat: 0 to 100 scale
Summary of the method: as §2

sugar beet = experiment: Test B preemergence/postemergence greenhouse plant response rating 0 to 10; assay type: in vivo, Beta vulgaris; conditions: 0 to 10 scale
Summary of the method: as §1

sorghum [5] = experiment: as above; assay type: in vivo, Sorghum bicolor; conditions: 0 to 10 scale
Summary of the method: as §1

cotton = experiment: as above; assay type: in vivo, Gossypium hirsutum; conditions: 0 to 10 scale
Summary of the method: as §1

lambsquarters = experiment: as above; assay type: in vivo, Chenopodium album; conditions: 0 to 10 scale
Summary of the method: as §1

crabgrass = experiment: Test C preemergence/postemergence greenhouse plant response rating 0 to 100; assay type: in vivo, Digitaria sanguinalis; conditions: POSTEMERGENCE; for Plant response rating, Crabgrass: 0 to 100 scale
Summary of the method: as §2

barnyardgrass = experiment: Test C flood test plant response rating 0 to 100; assay type: in vivo, Echinochloa crus-galli; conditions: for Plant response rating, Barnyardgrass: flood test species listed under POSTEMERGENCE, 0 to 100 scale
Summary of the method: as §2

blackgrass = experiment: Test B preemergence/postemergence greenhouse plant response rating 0 to 10; assay type: in vivo, Alopecurus myosuroides; conditions: 0 to 10 scale
Summary of the method: as §1

wild oat [6] = experiment: Test C preemergence/postemergence greenhouse plant response rating 0 to 100; assay type: in vivo, Avena fatua; conditions: POSTEMERGENCE; for Plant response rating, Wild oat: 0 to 100 scale
Summary of the method: as §2

COC(=O)c1cc(-c2nn3c(c2Cl)CCCC3)c(F)cc1Cl [Compound 43]
Plant response rating, Wild oat (wild oat [1]; POSTEMERGENCE, Rate 50 g/ha): 5
Plant response rating, Wild oat (wild oat [1]; PREEMERGENCE, Rate 50 g/ha): 2
Plant response rating, Wild oat (wild oat [1]; Rate 200 g/ha, POSTEMERGENCE): 7
Plant response rating, Bedstraw (bedstraw; POSTEMERGENCE, Rate 50 g/ha): 10
Plant response rating, Bedstraw (bedstraw; POSTEMERGENCE, Rate 200 g/ha): 10
Plant response rating, Bedstraw (bedstraw; PREEMERGENCE, Rate 50 g/ha): 0
Plant response rating, Bedstraw (bedstraw; Rate 200 g/ha, PREEMERGENCE): 9
Plant response rating Downy Brome (downy brome; 62 g/ha): 50
Plant response rating Downy Brome (downy brome; 250 g/ha): 80
Plant response rating (0 to 100), Downy Brome (downy brome; Rate 4 g/ha): 30
Plant response rating (0 to 100), Downy Brome (downy brome; Rate 16 g/ha): 40
Plant response rating Ryegrass (ryegrass; 62 g/ha): 50
Plant response rating Ryegrass (ryegrass; 250 g/ha): 85
Plant response rating (0 to 100), Ryegrass (ryegrass; Rate 4 g/ha): 30
Plant response rating (0 to 100), Ryegrass (ryegrass; Rate 16 g/ha): 40
Plant response rating, Wheat (wheat [2]; 62 g/ha): 50
Plant response rating, Wheat (wheat [2]; 250 g/ha): 60
Plant response rating (0 to 100), Wheat (wheat [2]; Rate 4 g/ha): 20
Plant response rating (0 to 100), Wheat (wheat [2]; Rate 16 g/ha): 40
Plant response rating, Wheat (wheat [3]; POSTEMERGENCE, Rate 50 g/ha): 3
Plant response rating, Wheat (wheat [3]; PREEMERGENCE, Rate 50 g/ha): 0
Plant response rating, Wheat (wheat [3]; Rate 200 g/ha, POSTEMERGENCE): 8
Plant response rating, Wheat (wheat [3]; Rate 200 g/ha, PREEMERGENCE): 2
Plant response rating, Sorghum (sorghum [4]; 62 g/ha): 100
Plant response rating, Sorghum (sorghum [4]; 250 g/ha): 100
Plant response rating (0 to 100), Sorghum (sorghum [4]; Rate 4 g/ha): 40
Plant response rating (0 to 100), Sorghum (sorghum [4]; Rate 16 g/ha): 60
Plant response rating, Rape (rape; 62 g/ha): 100
Plant response rating, Rape (rape; 250 g/ha): 100
Plant response rating (0 to 100), Rape (rape; Rate 4 g/ha): 80
Plant response rating (0 to 100), Rape (rape; Rate 16 g/ha): 100
Plant response rating, Barley (barley; POSTEMERGENCE, Rate 50 g/ha): 3
Plant response rating, Barley (barley; POSTEMERGENCE, Rate 200 g/ha): 3
Plant response rating, Barley (barley; PREEMERGENCE, Rate 50 g/ha): 0
Plant response rating, Barley (barley; Rate 200 g/ha, PREEMERGENCE): 0
Plant response rating, Wild buckwheat (wild buckwheat; 62 g/ha): 100
Plant response rating, Wild buckwheat (wild buckwheat; 250 g/ha): 100
Plant response rating (0 to 100), Wild buckwheat (wild buckwheat; Rate 4 g/ha): 60
Plant response rating (0 to 100), Wild buckwheat (wild buckwheat; Rate 16 g/ha): 100
Plant response rating, Sugar beet (sugar beet; POSTEMERGENCE, Rate 50 g/ha): 10
Plant response rating, Sugar beet (sugar beet; PREEMERGENCE, Rate 50 g/ha): 9
Plant response rating, Sugar beet (sugar beet; Rate 200 g/ha, POSTEMERGENCE): 10
Plant response rating, Sugar beet (sugar beet; Rate 200 g/ha, PREEMERGENCE): 10
Plant response rating, Sorghum (sorghum [5]; POSTEMERGENCE, Rate 50 g/ha): 5
Plant response rating, Sorghum (sorghum [5]; PREEMERGENCE, Rate 50 g/ha): 0
Plant response rating, Sorghum (sorghum [5]; Rate 200 g/ha, POSTEMERGENCE): 8
Plant response rating, Sorghum (sorghum [5]; Rate 200 g/ha, PREEMERGENCE): 2
Plant response rating, Cotton (cotton; POSTEMERGENCE, Rate 50 g/ha): 10
Plant response rating, Cotton (cotton; POSTEMERGENCE, Rate 200 g/ha): 10
Plant response rating, Cotton (cotton; PREEMERGENCE, Rate 50 g/ha): 0
Plant response rating, Cotton (cotton; Rate 200 g/ha, PREEMERGENCE): 1
Plant response rating, Lambsquarter (lambsquarters; POSTEMERGENCE, Rate 50 g/ha): 8
Plant response rating, Lambsquarter (lambsquarters; PREEMERGENCE, Rate 50 g/ha): 9
Plant response rating, Lambsquarter (lambsquarters; Rate 200 g/ha, POSTEMERGENCE): 10
Plant response rating, Lambsquarter (lambsquarters; Rate 200 g/ha, PREEMERGENCE): 10
Plant response rating, Crabgrass (crabgrass; 62 g/ha): 20
Plant response rating, Crabgrass (crabgrass; 250 g/ha): 60
Plant response rating (0 to 100), Crabgrass (crabgrass; Rate 4 g/ha): 10
Plant response rating (0 to 100), Crabgrass (crabgrass; Rate 16 g/ha): 20
Plant response rating (0 to 100), Barnyardgrass (barnyardgrass; POSTEMERGENCE section, flood test, Rate 4 g/ha): 45
Plant response rating (0 to 100), Barnyardgrass (barnyardgrass; Rate 16 g/ha, under POSTEMERGENCE head (flood test species)): 95
Plant response rating, Barnyardgrass (barnyardgrass; 62 g/ha): 100
Plant response rating, Barnyardgrass (barnyardgrass; 250 g/ha): 100
Plant response rating, Blackgrass (blackgrass; POSTEMERGENCE, Rate 50 g/ha): 7
Plant response rating, Blackgrass (blackgrass; POSTEMERGENCE, Rate 200 g/ha): 8
Plant response rating, Blackgrass (blackgrass; PREEMERGENCE, Rate 50 g/ha): 2
Plant response rating, Blackgrass (blackgrass; Rate 200 g/ha, PREEMERGENCE): 5
Plant response rating, Wild oat (wild oat [6]; 62 g/ha): 50
Plant response rating, Wild oat (wild oat [6]; 250 g/ha): 60
Plant response rating (0 to 100), Wild oat (wild oat [6]; Rate 4 g/ha): 20
Plant response rating (0 to 100), Wild oat (wild oat [6]; Rate 16 g/ha): 40
